Assay results as given in patent US4711879A, “Acylated sugar derivatives, processes for their manufacture, and their use” (Ciba-Geigy Corporation, priority 1984, dated 1987).

How the values were obtained:
[1] = tested on: viruses; assay: prophylaxis and treatment of virus infections in animals; assay type: in vivo, mice or guinea pigs; conditions: tests on animals
Excerpt: In these animal tests, animals, such as mice or guinea pigs, are infected with the most varied types of viruses at a dose that is lethal to all or the great majority of the untreated (control) animals, for example LD80-90, and the course of the infection is observed in the untreated control animals in comparison with animals treated with one of the above-mentioned compounds or a salt thereof before, simultaneously with or after infection.
These compounds of the formula I are effective in as low a dosage range as from 0.0001 mg/kg to 0.1 mg/kg in the above-mentioned test in mice.

[2] = test for pyrogenity in rabbits (European Pharmacopoeia); assay type: in vivo; conditions: 5 mg/kg i.v.
Procedure: The test for pyrogenity can be carried out in rabbits in accordance with the instructions given in the European Pharmacopoeia, Volume 2, pages 56 to 59 (1971). According to this test, for example N-propionyl- desmethylmuramyl-L-alanyl-D-isoglutaminyl-L-alanine-3-{2-[2-(2,6-dichlorophenylamino)-phenyl]-acetylamino}-2-hydroxypropylamide is not pyrogenic at a dose of 5 mg/kg i.v.

Row | Compound | suitability for prophylaxis and treatment of virus infections [1] | pyrogenity [2]
1 | (1α,β),4,6-tri-O-acetyl-N-propionyldesmethylmuramyl-L-alanyl-D- isoglutaminyl-L-alanine-3-[d-2-(6-methoxy-2-naphthyl]-propionylamino]-2-acetoxypropylamide [Example 21] | outstandingly suitable for the prophylaxis and treatment of virus infections | 
2 | CCC(=O)N(C1O[C@H](CO)[C@@H](O)[C@H](OCC(=O)O)[C@H]1N)[C@@H](C)C(=O)N[C@H](CCC(=O)N[C@@H](C)C(=O)NCC(O)CNC(=O)Cc1ccccc1Nc1c(Cl)cccc1Cl)C(N)=O (stereo partly drawn) [Example 6, N-propionyldesmethylmuramyl-L-alanyl-D-isoglutaminyl-L-alanine-3-{2-[2-(2,6-dichlorophenylamino)-phenyl]acetylamino}-2-hydroxypropylamide] |  | not pyrogenic
